Laboratory results published in article PMC3949521 (Acta Crystallographica Section D: Biological Crystallography, 2014).

Target: T1, B. megaterium PBGD (Priestia megaterium, UniProt Q8GCA8)
T1 construct: gene hemC; His tag removed for crystals; gene encodes 310 residues; about 35 kDa; monomer; cofactor on Cys241; residues 42-62 disordered
Test: X-ray crystal structure, […] and […] Å
Type: binding
Details: covalent (thioether to Cys241), pH 6.5-6.8, partial occupancy

T1 sequence (Q8GCA8 entry or part of it): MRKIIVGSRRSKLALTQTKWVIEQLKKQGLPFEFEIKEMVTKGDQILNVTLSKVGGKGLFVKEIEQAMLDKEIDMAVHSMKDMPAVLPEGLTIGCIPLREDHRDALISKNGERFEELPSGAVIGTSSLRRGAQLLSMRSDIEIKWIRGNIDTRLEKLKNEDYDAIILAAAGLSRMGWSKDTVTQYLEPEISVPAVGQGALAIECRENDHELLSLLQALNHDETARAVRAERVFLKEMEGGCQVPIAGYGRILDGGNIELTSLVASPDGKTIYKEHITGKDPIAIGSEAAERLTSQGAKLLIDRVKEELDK

Row | Structure (SMILES) | X-ray crystal structure, 1.46 and 1.60 Å (X-ray cannot tell dipyrromethane from dipyrromethene, PDB also 4mlq) | X-ray crystal structure, 1.46 and 1.60 Å (shared with reduced conformer, inactive oxidized form, PDB also 4mlv)
1 | N[C@@H](CSCc1[nH]c(Cc2[nH]cc(CCC(=O)O)c2CC(=O)O)c(CCC(=O)O)c1CC(=O)O)C(=O)O [dipyrromethane cofactor] | one of which corresponds to the fully reduced dipyrromethane | 
2 | N[C@@H](CSCc1[nH]c(CC2NC(=O)C(CCC(=O)O)=C2CC(=O)O)c(CCC(=O)O)c1CC(=O)O)C(=O)O (some centres unmarked) [dipyrromethanone] |  | the 'oxidized' conformation of the cofactor is actually the partly reduced dipyrromethanone form
